Data taken from ChEMBL document CHEMBL2375247, “Synthesis and evaluation of 3-(benzylthio)-5-(1H-indol-3-yl)-1,2,4-triazol-4-amines as Bcl-2 inhibitory anticancer agents” (Bioorg Med Chem Lett, 2013).

Key:
[1] = Cytotoxicity against human KG1a cells after 24 hrs by CellTitre-Blue assay; type: functional, cell-based; settings: KG-1a
HeLa = test: Cytotoxicity against human HeLa cells after 72 hrs by MTT assay; type: functional, cell-based
Jurkat = test: Cytotoxicity against human Jurkat cells after 24 hrs by CellTitre-Blue assay; type: functional, cell-based
MDA-MB-231 = test: Cytotoxicity against human MDA-MB-231 cells after 72 hrs by MTT assay; type: functional, cell-based; settings: MDA-MB-231, 72 h
[2] = biological target: Apoptosis regulator Bcl-2 (Homo sapiens, UniProt P10415); test: Competitive binding affinity to his-tagged Bcl-2 (unknown origin) after 1 hr by ELISA in presence of Bim peptide
Sequence of Apoptosis regulator Bcl-2 (P10415 whole entry): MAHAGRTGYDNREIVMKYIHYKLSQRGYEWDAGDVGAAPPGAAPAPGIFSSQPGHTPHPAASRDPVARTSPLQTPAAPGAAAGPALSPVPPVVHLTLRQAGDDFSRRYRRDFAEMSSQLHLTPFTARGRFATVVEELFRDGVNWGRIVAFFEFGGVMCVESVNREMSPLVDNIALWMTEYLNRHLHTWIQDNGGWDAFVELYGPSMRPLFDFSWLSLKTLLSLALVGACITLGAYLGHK

SMILES: Nn1c(SCc2ccc(F)cc2)nnc1-c1c[nH]c2ccccc12
- IC50 [1]: 13.2 µM
- IC50 (HeLa): 0.29 µM
- IC50 (Jurkat): > 100 µM
- IC50 (MDA-MB-231): 1.35 µM

SMILES: Nn1c(SCc2ccccc2[N+](=O)[O-])nnc1-c1c[nH]c2ccccc12
- IC50 [1]: 20.8 µM
- IC50 (HeLa): 2.52 µM
- IC50 (Jurkat): > 100 µM
- IC50 (MDA-MB-231): 9.52 µM

SMILES: COc1ccc(CSc2nnc(-c3c[nH]c4ccccc34)n2N)cc1
- IC50 [1]: > 100 µM
- IC50 (HeLa): 0.75 µM
- IC50 (Jurkat): > 100 µM
- IC50 (MDA-MB-231): 1.7 µM

SMILES: COc1cccc(CSc2nnc(-c3c[nH]c4ccccc34)n2N)c1
- IC50 [1]: 12.9 µM
- IC50 (HeLa): 1.73 µM
- IC50 (Jurkat): > 100 µM
- IC50 (MDA-MB-231): 15.6 µM

SMILES: Nn1c(SCc2ccc(Br)cc2)nnc1-c1c[nH]c2ccccc12
- IC50 [1]: 55.8 µM
- IC50 (HeLa): 8 µM
- IC50 (Jurkat): > 100 µM
- IC50 (MDA-MB-231): 71.4 µM

SMILES: Nn1c(SCc2ccc([N+](=O)[O-])cc2)nnc1-c1c[nH]c2ccccc12
- IC50 [1]: 6.9 µM
- IC50 (HeLa): 0.25 µM
- IC50 (Jurkat): > 100 µM
- IC50 (MDA-MB-231): 0.74 µM

SMILES: Nn1c(SCc2ccccc2)nnc1-c1c[nH]c2ccccc12
- IC50 [1]: 17.2 µM
- IC50 (HeLa): 2.3 µM
- IC50 (Jurkat): > 100 µM
- IC50 (MDA-MB-231): 26.5 µM

SMILES: Nn1c(SCc2cccc([N+](=O)[O-])c2)nnc1-c1c[nH]c2ccccc12
- IC50 [1]: 0.65 µM
- IC50 (HeLa): 0.4 µM
- IC50 (Jurkat): > 100 µM
- IC50 [2]: 1.43 µM
- IC50 (MDA-MB-231): 0.31 µM

SMILES: Cc1ccc(CSc2nnc(-c3c[nH]c4ccccc34)n2N)cc1
- IC50 [1]: > 100 µM
- IC50 (HeLa): 5.38 µM
- IC50 (Jurkat): > 100 µM
- IC50 (MDA-MB-231): 10.5 µM
